# pIC50: −log10 of the molar value. Like-named read-outs stand apart in the source and are kept apart here.
# Experiments:
# [1] = tested on: MAC; assay: Synergy by checkerboard titration (microdilution); assay type: cell-based, M. avium complex; settings: for MIC Combination: combination SQ641 + EMB; for MIC: Mycobacterium avium, drug alone
# [2] = tested on: M. smegmatis (MSMG; MC2155); assay: MIC by microdilution method in 7H9 broth; assay type: cell-based; settings: MSMG MC^2155, 72 hr
# [3] = tested on: M. avium complex (MAC); assay: MIC by microdilution method in 7H9 broth; assay type: cell-based; settings: for MIC90: value in square brackets
# [4] = tested on: M. abscessus (MAB; ATCC 700869); assay: MIC by microdilution method in 7H9 broth; assay type: cell-based; settings: MAB 700869
# [5] = tested on: MTB-pSMT1 luciferase reporter strain; assay: Activity against slowly replicating (hypoxic) MTB; assay type: cell-based; settings: Mycobacterium tuberculosis
# [6] = tested on: M. smegmatis; assay: Synergy by checkerboard titration (microdilution); assay type: cell-based; settings: M. smegmatis; for MIC: Mycolicibacterium smegmatis, drug alone
# [7] = tested on: M. kansaii (MKN; ATCC12478 & 35775); assay: MIC by microdilution method in 7H9 broth; assay type: cell-based, M. kansasii
# [8] = tested on: M. abscessus; assay: Synergy by checkerboard titration (microdilution); assay type: cell-based
# [9] = tested on: intracellular MTB (MTBp-SMT1) in J774A.1 macrophages; assay: Intracellular activity of SQ641-TPGS micelles; assay type: cell-based, Mycobacterium tuberculosis
# [10] = target: translocase I (Escherichia coli, UniProt P0A6W3); assay: IC50 against translocase I; assay type: biochemical
# translocase I, sequence (P0A6W3 whole entry): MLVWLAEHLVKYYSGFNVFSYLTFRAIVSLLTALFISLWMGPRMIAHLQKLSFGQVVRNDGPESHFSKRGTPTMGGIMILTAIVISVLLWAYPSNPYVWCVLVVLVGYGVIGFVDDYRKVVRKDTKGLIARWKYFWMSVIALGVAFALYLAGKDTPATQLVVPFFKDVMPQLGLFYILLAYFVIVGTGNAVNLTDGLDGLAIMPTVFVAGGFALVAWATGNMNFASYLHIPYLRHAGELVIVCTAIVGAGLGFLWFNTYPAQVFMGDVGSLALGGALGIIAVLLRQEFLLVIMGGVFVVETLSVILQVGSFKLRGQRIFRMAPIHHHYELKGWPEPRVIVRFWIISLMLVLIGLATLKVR
# [11] = tested on: MTB in J774 cells; assay: Intracellular activity of amino acid conjugates; assay type: cell-based, Mycobacterium tuberculosis; settings: day 0 RLU 775, Control day 7 31700
# Description: The amino acid conjugates were tested at concentrations of 4 mg/mL and 8 mg/mL compared with a control and isoniazid (INH).
# The intracellular activity against MTB by capuramycin amino acid derivatives was tested. Cells J774 were infected with MTB and treated for 7 days with the amino acid derivative. The mean Relative Light Unites (RLU), an estimation of bacterial viability, was measured as described in Snewin et al., Infect. Immun., 1999, 67(9), 4586-4593).
# [12] = Mycolicibacterium smegmatis, MC2155|MC^2155, read-out: MIC
# [13] = Mycobacterium avium, 336 h, MAC isolates, 2 wk, read-out: MIC (range)
# [14] = Mycobacterium avium, MAC strain 100, read-out: MIC
# [15] = Mycobacterium avium, MAC strain 101, read-out: MIC
# [16] = Mycobacterium avium, MAC strain 104, read-out: MIC
# [17] = Mycobacterium avium, MAC strain 109, read-out: MIC
# [18] = Mycobacterium avium, MAC strain A5, read-out: MIC
# [19] = Mycobacterium avium, MAC strain JSH1, read-out: MIC
# [20] = Mycobacterium avium, MAC strain NIH C1-1, read-out: MIC
# [21] = Mycobacterium avium, MAC strain NIH C1-2, read-out: MIC
# [22] = Mycobacterium avium, MAC strain NIH C1-3, read-out: MIC
# [23] = Mycobacterium avium, MAC strain NIH C1-4, read-out: MIC
# [24] = Mycobacterium avium, MAC isolates, read-out: MIC90
# [25] = Mycobacteroides abscessus, ATCC700869, read-out: MIC
# [26] = Mycobacterium kansasii, ATCC 12478 / ATCC 35775, MKN ATCC35775, read-out: MIC
# [27] = Mycobacterium kansasii, MKN ATCC12478, read-out: MIC
Structure (SMILES),"MIC [2, 12] [µg/mL]","MIC [3, 13] [µg/mL]","MIC [3, 14] [µg/mL]","MIC [3, 15] [µg/mL]","MIC [3, 16] [µg/mL]","MIC [3, 17] [µg/mL]","MIC [3, 18] [µg/mL]","MIC [3, 19] [µg/mL]","MIC [3, 20] [µg/mL]","MIC [3, 21] [µg/mL]","MIC [3, 22] [µg/mL]","MIC [3, 23] [µg/mL]","MIC90 [3, 24] [µg/mL]","MIC [4, 25] [µg/mL]","MIC [7, 26] [µg/mL]","MIC [7, 27] [µg/mL]",pIC50 [10],also measured
"CC[C@@H](CO)NCCN[C@@H](CC)CO [EMB, ethambutol, reference compound]",0.5,0.5 to 32,4,1,2,0.5,1,16,4,2,32,2,16,> 32,1,2,,"MIC Combination ([1]; MAC A5): 0.062 µg/mL; MIC Combination ([1]; MAC JSH1): 8.0 µg/mL; MIC Combination ([1]; MAC NIH C1-1): 2.0 µg/mL; MIC ([1]; MAC A5): 1 µg/mL; MIC ([1]; MAC JSH1): 32 µg/mL; MIC ([1]; MAC NIH C1-1): 8 µg/mL; MIC [5]: 2 µg/mL; MIC ([5]; Hypoxic, […]): 32 µg/mL; MIC Combination ([6]; combination SQ641 + EMB): 0.12 µg/mL; MIC [6]: 0.5 µg/mL"
"CO[C@H]1/C=C/O[C@@]2(C)Oc3c(C)c(O)c4c(c3C2=O)C2=NC3(CCN(CC(C)C)CC3)NC2=C(NC(=O)/C(C)=C\C=C\[C@H](C)[C@H](O)[C@@H](C)[C@@H](O)[C@@H](C)[C@H](OC(C)=O)[C@@H]1C)C4=O [RFB, reference compound]",,,,,,,,,,,,,,,,,,"MIC [2]: 0.25 µg/mL; MIC range ([3]; MAC isolates, 2 wk): 0.0078 to 0.125 µg/mL; MIC90 ([3]; MAC isolates): 0.062 µg/mL; MIC [4]: 2 µg/mL; MIC Combination ([8]; combination SQ641 + RFB): 0.25 µg/mL; MIC Alone ([8]; drug alone): 2.0 µg/mL; MIC ([7]; MKN ATCC12478): ≦0.0039 μg/ml; MIC ([7]; MKN ATCC35775): ≦0.031 μg/ml"
"CO[C@H]1/C=C/O[C@@]2(C)Oc3c(C)c(O)c4c(O)c(c(/C=N/N5CCN(C)CC5)c(O)c4c3C2=O)NC(=O)/C(C)=C\C=C\[C@H](C)[C@H](O)[C@@H](C)[C@@H](O)[C@@H](C)[C@H](OC(C)=O)[C@@H]1C [RIF, rifampicin, reference compound]",8,0.062 to 4,,,,,,,,,,,1,> 32,,,,"Mean RLU at Day 7 [9]: 22 RLU; MIC Combination ([6]; combination SQ641 + RIF): 2.0 µg/mL; MIC [6]: 8 µg/mL; MIC ([7]; Mycobacterium kansasii, ATCC12478): 0.125 µg/mL; MIC ([7]; Mycobacterium kansasii, ATCC 12478 / ATCC 35775): 0.125 µg/mL"
CO[C@H]1[C@@H](O)[C@H](n2ccc(=O)[nH]c2=O)O[C@@H]1[C@@H](O[C@H]1OC(C(=O)Nc2ccc(F)c(C(F)(F)F)c2)=C[C@H](O)[C@@H]1O)C(N)=O [RKS2137],4,0.5 to 16,2,1,1,0.5,1,1,8,2,16,2,8,8,2,> 32,7.89,
CO[C@H]1[C@@H](O)[C@H](n2ccc(=O)[nH]c2=O)O[C@@H]1[C@@H](O[C@H]1OC(C(=O)Nc2cccc(F)c2)=C[C@H](O)[C@@H]1O)C(N)=O [RKS2186],4,,2,2,1,1,1,4,8,2,8,2,8,16,4,> 32,,IC50 against translocase I [10]: 0.01 µg/mL
CO[C@H]1[C@@H](O)[C@H](n2ccc(=O)[nH]c2=O)O[C@@H]1[C@@H](O[C@H]1OC(C(=O)Nc2ccc(F)c(F)c2F)=C[C@H](O)[C@@H]1O)C(N)=O [RKS2235],4,1 to 8,2,1,1,1,1,2,4,2,8,2,4,16,2,> 32,7.77,
CO[C@H]1[C@@H](O)[C@H](n2ccc(=O)[nH]c2=O)O[C@@H]1[C@@H](O[C@H]1OC(C(=O)Nc2ccc(OC(F)(F)F)cc2)=C[C@H](O)[C@@H]1O)C(N)=O [RKS2241],4,0.5 to 16,2,1,0.5,0.5,1,2,8,1,16,2,8,2,2,32,7.62,
CO[C@H]1[C@@H](O)[C@H](n2ccc(=O)[nH]c2=O)O[C@@H]1[C@@H](O[C@H]1OC(C(=O)Nc2ccc([N+](=O)[O-])cc2)=C[C@H](O)[C@@H]1O)C(N)=O [RKS2243],4,0.5 to 8,1,1,1,0.5,0.5,1,4,1,8,1,4,> 32,2,32,8.16,
CO[C@H]1[C@@H](O)[C@H](n2ccc(=O)[nH]c2=O)O[C@@H]1[C@@H](O[C@H]1OC(C(=O)Nc2ccc(Br)c(C)c2)=C[C@H](O)[C@@H]1O)C(N)=O [RKS2244],1,0.5 to 8,0.5,0.25,0.25,0.25,0.25,0.5,4,0.5,8,1,4,4,2,> 32,7.91,MIC range ([3]; ten MAC isolates (Table 6)): 0.25 to 8 µg/mL
"[H]/N=C(/N)N[C@H]1[C@H](O)[C@@H](O)[C@H](O[C@@H]2O[C@@H](C)[C@](O)(C=O)[C@H]2O[C@@H]2O[C@@H](CO)[C@H](O)[C@@H](O)[C@@H]2NC)[C@@H](N/C(N)=N\[H])[C@@H]1O [SM, streptomycin, reference compound]",0.5,,,,,,,,,,,,,8,2,> 32,,"MIC [5]: 0.25 µg/mL; MIC ([5]; Hypoxic, […]): 1 µg/mL; MIC Combination ([6]; combination SQ641 + SM): 0.25 µg/mL; MIC [6]: 0.5 µg/mL; MIC ([8]; Mycobacteroides abscessus, drug alone): 8 µg/mL; MIC Combination ([8]; combination SQ641 + SM): 2.0 µg/mL"
CCCCCCCCCC(=O)O[C@@H]1[C@H](OC)[C@@H]([C@@H](OC2OC(C(=O)N[C@H]3CCC[C@@H](C)NC3=O)=C[C@H](OC(=O)CCOCCOCCOCCOCCN)[C@@H]2OC(=O)CCOCCOCCOCCOCCN)C(N)=O)O[C@H]1n1ccc(=O)[nH]c1=O (some centres unmarked) [SQ641-2topdec],,,,,,,,,,,,,,,,,,Mean RLU on day 7 ([11]; 4 μg/ml): 4354 RLU; Mean RLU on day 7 ([11]; 8 μg/ml): 2903 RLU
CCCCCCCCCC(=O)O[C@@H]1[C@H](OC)[C@@H]([C@@H](OC2OC(C(=O)N[C@H]3CCC[C@@H](C)NC3=O)=C[C@H](OC(=O)CCCCCCCCCCN)[C@@H]2O)C(N)=O)O[C@H]1n1ccc(=O)[nH]c1=O (some centres unmarked) [SQ641-aua],,,,,,,,,,,,,,,,,,Mean RLU on day 7 ([11]; 4 μg/ml): 3163 RLU; Mean RLU on day 7 ([11]; 8 μg/ml): 372 RLU
CCCCCCCCCC(=O)O[C@@H]1[C@H](OC)[C@@H]([C@@H](OC2OC(C(=O)N[C@H]3CCC[C@@H](C)NC3=O)=C[C@H](OC(=O)CCOCCOCCOCCOCCN)[C@@H]2O)C(N)=O)O[C@H]1n1ccc(=O)[nH]c1=O (some centres unmarked) [SQ641-topdec],,,,,,,,,,,,,,,,,,Mean RLU on day 7 ([11]; 4 μg/ml): 3368 RLU; Mean RLU on day 7 ([11]; 8 μg/ml): 2143 RLU
